{
  "source": "paper PMC10525516",
  "about": "“Novel NADPH Oxidase-2 Inhibitors as Potential Anti-Inflammatory and Neuroprotective Agents” (Antioxidants, 2023)",
  "key": {"THP-1 cells": {"test_system": "THP-1 cells", "experiment": "qRT-PCR mRNA expression of Nox2 subunits and inflammatory mediators in PMA-treated THP-1 cells", "type": "cell-based, human", "settings": "3 µM, 48 h with PMA 100 ng/mL", "method": "Human promyelocytic leukemia HL60 cells (Sigma-Aldrich) were grown in RPMI 1640 medium (Gibco, 11875-093, Billings, MT, USA) supplemented with 10% FBS (Omega Scientific (Tarzana, CA, USA)), 100 units/mL penicillin, and 100 µg/mL streptomycin, and were incubated at 37 °C and 5% carbon dioxide (CO2). For differentiation to neutrophil-like cells, HL60 cells were pelleted and resuspended in fresh media containing 1 µM of all trans-retinoic acid and incubated for four to five days. Nox2 activation was achieved by treating differentiated HL60 (dHL60) cells with 1 µM PMA [24]. Human leukemia monocytic cells, THP-1, were grown in RPMI 1640 medium + GlutaMAX^TM (Gibco, 61870-036) and supplemented with 10% FBS, 10 mM HEPES, and 1 mM sodium pyruvate and incubated at 37 °C in 5% CO2 environment. To induce differentiation into macrophages, THP-1 cells were treated with PMA (100 ng/mL) for 48 h. To test the efficacy of Nox2 inhibitors, treatment was performed with or without the inhibitor, along with PMA [35].\nmRNA expression analysis was performed as previously described. Briefly, THP-1 cells were treated with PMA (100 ng/mL) with or without the Nox2 inhibitor TG15-132 (3.0 µM) for 48 h. RNA extraction was done using the Quick-RNA miniprep kit (cat. no. R1055, Zymo Research, Irvine, CA, USA) and followed by cDNA synthesis using the qScript cDNA superMix kit (cat. no. 84035, Quantabio, Beverly, MA, USA). Quantitative real-time PCR was performed using specific primers designed to amplify target genes (Table 2). Data obtained were analyzed and converted into fold changes in expression with respect to vehicle-treated cells."}, "Nox2": {"target": "T1, Nox2 (Homo sapiens, UniProt P04839)", "T1 construct": "endogenous in cells", "T1 sequence (P04839 2-570 limits assumed)": "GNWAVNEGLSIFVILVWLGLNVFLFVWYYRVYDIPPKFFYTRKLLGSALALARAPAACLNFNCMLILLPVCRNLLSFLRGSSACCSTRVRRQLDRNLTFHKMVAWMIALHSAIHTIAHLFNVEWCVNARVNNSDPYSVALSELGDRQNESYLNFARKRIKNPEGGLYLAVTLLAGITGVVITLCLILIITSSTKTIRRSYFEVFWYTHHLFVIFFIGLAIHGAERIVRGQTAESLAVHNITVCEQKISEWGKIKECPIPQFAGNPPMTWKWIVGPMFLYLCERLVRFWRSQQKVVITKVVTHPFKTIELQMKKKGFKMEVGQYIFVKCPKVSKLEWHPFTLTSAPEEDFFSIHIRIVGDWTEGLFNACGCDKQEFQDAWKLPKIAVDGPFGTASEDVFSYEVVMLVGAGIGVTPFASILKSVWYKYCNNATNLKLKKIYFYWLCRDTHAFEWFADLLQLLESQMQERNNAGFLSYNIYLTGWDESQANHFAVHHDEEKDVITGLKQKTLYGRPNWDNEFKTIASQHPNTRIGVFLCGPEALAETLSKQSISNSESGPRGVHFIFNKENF", "T1 sequence (P13498 2-195 partner limits assumed)": "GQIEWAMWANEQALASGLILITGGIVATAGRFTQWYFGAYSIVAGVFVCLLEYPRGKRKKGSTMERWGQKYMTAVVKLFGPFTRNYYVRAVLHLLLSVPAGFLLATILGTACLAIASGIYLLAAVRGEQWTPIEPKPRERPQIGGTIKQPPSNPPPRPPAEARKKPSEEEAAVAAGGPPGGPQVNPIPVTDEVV", "experiment": "Rapid HPLC analysis of HE oxidation (2-OH-E+) for O2•− production by activated dHL60 cells", "type": "cell-based", "settings": "1 h incubation after PMA, Figure 5D,E", "method": "For high-performance liquid chromatography (HPLC)-based analyses of superoxide production by activated dHL60 cells, the cells (0.8 mL, 2 × 10^5 cells/mL) were pretreated with inhibitors for 30 min, as described above, followed by the addition of 200 µL of the mixture of PMA (5 µM) and HE (50 µM); then, they were incubated for 1 h at 37 °C in the dark. Next, 0.5 mL aliquots of the cell suspensions were transferred into 1.5 mL microcentrifuge tubes prefilled with 10 µL of a mixture of 3,8-diamino-6-phenylphenanthridine (50 µM, used as an internal standard), superoxide dismutase, and catalase (5 mg/mL and 5 kU/mL, respectively, used to stop probe oxidation), and the tubes were centrifugated (5 min, 3000× g) to pellet the cells. Clear supernatants (0.2 mL) were transferred into HPLC vials and analyzed for HE, 2-hydroxyethidium (2–OH–E^+), ethidium (E^+), and diethidium (E^+–E^+) content, as described previously. Briefly, an Agilent 1100 HPLC system equipped with an Ascentis Express Phenyl-Hexyl column (50 mm × 4.6 mm, 2.7 µm, Supelco, Bellefonte, PA, USA) and absorption and fluorescence detectors was used. […] Samples (25 µL) were injected, and the products were detected by monitoring absorbance (290 and 370 nm) and fluorescence (exc. 370 nm, emi. 565 nm) signals."}},
  "data": [
    {"smiles": "CN(C)CCCn1c(SCCc2c[nH]c3ccccc23)nc2ccc(F)cc2c1=O", "note": "[TG15-132]", "values": [
      {"measurement": "mRNA expression vs PMA-treated cells, additional experiment (Figure 7B)", "setting": "THP-1 cells", "value": "statistically significant reduction in the expression of p47^phox, IL-1β, and TNF"},
      {"measurement": "mRNA expression vs cells treated with PMA alone (Figure 7A)", "setting": "THP-1 cells", "value": "reduced the expression of gp91^phox, p47^phox, p67^phox, IL-1β, and TNF"},
      {"measurement": "HE consumption and 2-OH-E+ formation (HPLC)", "setting": "Nox2", "value": "inhibited by cell pretreatment with TG15-132 in a dose-dependent manner"}
    ]}
  ]
}
